Measurements: US9597407B2, “Targeted antimicrobial moieties” (C3 Jian, Inc., priority 2009, dated 2017)

What was measured:
microorganisms [1] = experiment: Peptide activities: binding, antimicrobial, growth or phenotype altering (Table 8)
Text: In certain embodiments, peptides described herein can have multiple activities. Thus for example, a peptide can have both binding/targeting activity and antimicrobial activity. Such peptides can be used, e.g., in a chimeric construct, for any or all of these properties. Thus, for example, a peptide designated “B” in Table 8 can be used as a targeting peptide. If it is also designated G or M it can also be used for antimicrobial activity.

microorganisms [2] = experiment: Morphology, biofilm and growth disruption by peptides (Table 5); type: cell-based; parameters: key: A: Peptide aggregates; B: Less hyphal formation; Clumps; Diffuse clumps and small polyps; F: Diffuse growth; H: Thin; I: Growth inhibition; Microcolony formation; Rippled; Small polyps; Thick; W: Halo formation on top, microlonies on bottom
Text: In certain embodiments peptides that induce alterations in phenotype or other biological activities can also be used as antimicrobial effector moieties.

Row | Substance | Activities (microorganisms [1]) | Organism, effect (morphology, biofilm and growth disruption) (microorganisms [2]; MRSA) | Organism, effect (morphology, biofilm and growth disruption) (microorganisms [2]; S. epidermidis) | Organism, effect (morphology, biofilm and growth disruption) (microorganisms [2]; S. pneumoniae) | Organism, effect (microorganisms [2]; MRSA) | Organism, effect (microorganisms [2]; S. epidermidis) | also measured
1 | PF-544 (FGEKQMRSWWKVHWFHP; Peptide with targeting and/or antimicrobial activity) | G B | MRSA (D) | S. epidermidis (D) | S. pneumoniae (M) | – | – | Organism, effect (morphology, biofilm and growth disruption) (microorganisms [2]; E. faecalis): E. faecalis (R)
2 | PF-068 (SHLINNFGLSVINPSTPICLNFSPVFNLLTVYGITCN; Peptide with targeting and/or antimicrobial activity) | G B | – | – | – | MRSA (M) | S. epidermidis (M) | Organism, effect (microorganisms [2]; B. subtilis): B. subtilis (A); Organism, effect (microorganisms [2]; C. jeikeium): C. jeikeium (R); Organism, effect (microorganisms [2]; C. jejuni): C. jejuni (D); Organism, effect (microorganisms [2]; E. coli): E. coli (A); Organism, effect (microorganisms [2]; E. faecalis): E. faecalis (A); Organism, effect (microorganisms [2]; M. luteus): M. luteus (D); Organism, effect (microorganisms [2]; S. pneumoniae): S. pneumoniae (D)
3 | PF-354 (FTFSKCRASNGRGFGTLWL; Peptide with targeting and/or antimicrobial activity) | G B | – | – | – | MRSA (H) | – | –
4 | PF-619 (chain 1 WSRVPGHSDTGWKVWHRW; chain 2 WSRVPGHSDTGWKVWHRW; Peptide with targeting and/or antimicrobial activity) | G B | MRSA (M) | S. epidermidis (M) | S. pneumoniae (C) | – | – | Organism, effect (morphology, biofilm and growth disruption) (microorganisms [2]; E. coli): E. coli (C)
5 | PF-057 (TMIVISIPRFEEYMKARHKKWM; Peptide with targeting and/or antimicrobial activity) | G B | – | – | – | MRSA (M) | S. epidermidis (D) | Organism, effect (microorganisms [2]; C. albicans): C. albicans (A); Organism, effect (microorganisms [2]; C. jeikeium): C. jeikeium (A); Organism, effect (microorganisms [2]; C. jejuni): C. jejuni (D); Organism, effect (microorganisms [2]; E. coli): E. coli (M); Organism, effect (microorganisms [2]; E. faecalis): E. faecalis (A); Organism, effect (microorganisms [2]; M. luteus): M. luteus (C); Organism, effect (microorganisms [2]; S. pneumoniae): S. pneumoniae (R)
6 | PF-356 (VSIKIGAIVIGMIGLMELLTE; Peptide with targeting and/or antimicrobial activity) | G B | – | – | – | MRSA (C) | S. epidermidis (S) | Organism, effect (microorganisms [2]; C. jejuni): C. jejuni (D); Organism, effect (microorganisms [2]; E. faecalis): E. faecalis (R); Organism, effect (microorganisms [2]; P. aeruginosa): P. aeruginosa (A); Organism, effect (microorganisms [2]; S. pneumoniae): S. pneumoniae (R)
7 | PF-042 (LLLSYFRYTGALLQSLF; Peptide with targeting and/or antimicrobial activity) | G B | – | – | – | MRSA (R) | S. epidermidis (D) | Organism, effect (microorganisms [2]; C. jeikeium): C. jeikeium (S); Organism, effect (microorganisms [2]; M. luteus): M. luteus (C)
8 | PF-454 (MSVFVPVTNIFMFIMSPIFNVNLLHFKVYI; Peptide with targeting and/or antimicrobial activity) | G B | MRSA (C) | S. epidermidis (C) | S. pneumoniae (R) | – | – | Organism, effect (morphology, biofilm and growth disruption) (microorganisms [2]; E. coli): E. coli (R); Organism, effect (morphology, biofilm and growth disruption) (microorganisms [2]; E. faecalis): E. faecalis (C); Organism, effect (morphology, biofilm and growth disruption) (microorganisms [2]; P. aeruginosa): P. aeruginosa (H)
9 | PF-548 (ARPIADLIHFNSTTVTASGDVYYGPG; Peptide with targeting and/or antimicrobial activity) | G B | MRSA (M) | S. epidermidis (M) | S. pneumoniae (D) | – | – | Organism, effect (morphology, biofilm and growth disruption) (microorganisms [2]; B. subtilis): B. subtilis (C); Organism, effect (morphology, biofilm and growth disruption) (microorganisms [2]; C. jeikeium): C. jeikeium (R); Organism, effect (morphology, biofilm and growth disruption) (microorganisms [2]; C. jejuni): C. jejuni (D); Organism, effect (morphology, biofilm and growth disruption) (microorganisms [2]; M. luteus): M. luteus (A)
10 | PF-440 (MFIISPDLFNIAVILYILFFIHDILLLILS; Peptide with targeting and/or antimicrobial activity) | G B | MRSA (C) | S. epidermidis (C) | S. pneumoniae (R) | – | – | Organism, effect (morphology, biofilm and growth disruption) (microorganisms [2]; E. coli): E. coli (R); Organism, effect (morphology, biofilm and growth disruption) (microorganisms [2]; E. faecalis): E. faecalis (C)
11 | PF-012 (WRGPNTEAGGKSANNIVQVGGAPT; Peptide with targeting and/or antimicrobial activity) | G B | – | – | – | MRSA (R) | S. epidermidis (S) | Organism, effect (microorganisms [2]; C. jeikeium): C. jeikeium (A); Organism, effect (microorganisms [2]; M. luteus): M. luteus (C)
12 | PF-577 (PFETRESFRVPVIGILGGWDYFMHP; Peptide with targeting and/or antimicrobial activity) | G B | MRSA (M) | S. epidermidis (A) | S. pneumoniae (R) | – | – | Organism, effect (morphology, biofilm and growth disruption) (microorganisms [2]; C. jejuni): C. jejuni (R); Organism, effect (morphology, biofilm and growth disruption) (microorganisms [2]; E. coli): E. coli (A); Organism, effect (morphology, biofilm and growth disruption) (microorganisms [2]; E. faecalis): E. faecalis (A); Organism, effect (morphology, biofilm and growth disruption) (microorganisms [2]; P. aeruginosa): P. aeruginosa (A)
13 | PF-562 (TPEQWLERSTVVVTGLLNRK; Peptide with targeting and/or antimicrobial activity) | G B | MRSA (M) | S. epidermidis (A) | S. pneumoniae (D) | – | – | Organism, effect (morphology, biofilm and growth disruption) (microorganisms [2]; C. jejuni): C. jejuni (R); Organism, effect (morphology, biofilm and growth disruption) (microorganisms [2]; M. luteus): M. luteus (R)
14 | PF-537 (LANDYYKKTKKSW; Peptide with targeting and/or antimicrobial activity) | G B | – | – | S. pneumoniae (C) | – | – | –
15 | PF-450 (HRNLIILQRTIFI; Peptide with targeting and/or antimicrobial activity) | G B | MRSA (C) | – | S. pneumoniae (C) | – | – | Organism, effect (morphology, biofilm and growth disruption) (microorganisms [2]; E. faecalis): E. faecalis (C)
16 | AL C SVIKAIEL GIINVHL Q [PF-366] | G B | – | – | – | MRSA (D) | S. epidermidis (R) | Organism, effect (microorganisms [2]; C. jejuni): C. jejuni (D); Organism, effect (microorganisms [2]; E. coli): E. coli (C); Organism, effect (microorganisms [2]; E. faecalis): E. faecalis (C); Organism, effect (microorganisms [2]; P. aeruginosa): P. aeruginosa (A); Organism, effect (microorganisms [2]; S. pneumoniae): S. pneumoniae (C)
17 | PF-056 (AEQLFGKQKQRGVDLFLNRLTIILSILFFVLMICISYLGM; Peptide with targeting and/or antimicrobial activity) | G B | – | – | – | MRSA (M) | S. epidermidis (D) | Organism, effect (microorganisms [2]; B. subtilis): B. subtilis (C); Organism, effect (microorganisms [2]; C. albicans): C. albicans (B); Organism, effect (microorganisms [2]; C. jeikeium): C. jeikeium (S); Organism, effect (microorganisms [2]; C. jejuni): C. jejuni (D); Organism, effect (microorganisms [2]; M. luteus): M. luteus (D); Organism, effect (microorganisms [2]; S. pneumoniae): S. pneumoniae (D)
